These results are taken from patent publication US20230278984A1 (Global Blood Therapeutics, Inc., priority 2020, published 2023).

Each structure is given as a SMILES string.

Experiment [1] deals with T1, Human pyruvate kinase R (PKR) (Homo sapiens, UniProt P30613).
T1 construct: Human pyruvate kinase R (PKR), residues 14-574; 6x-His (N, cleaved yes); 8x-Arg (N, cleaved yes); SUMO (N, cleaved yes); host or cells: E. coli
Kind of experiment: Biochemical assay for activation of pyruvate kinase R (Kinase-Glo luminescence measurement of ATP generation). The note with it: for AC50: PKR biochemical assay, 0.1 nM PKR, 0.3 mM ADP, 2 mM FBP, 0.1 mM PEP; for Emax: maximal activation level relative to the activation level achieved by the literature compound AG-348 @ 10 μM. The method, boiled down: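 Recombinant human PKR (residues 14-574), E. coli-expressed with His-Arg-SUMO tag removed, purified by Ni-NTA, anion exchange and size exclusion. Activation measured as ATP generation via Kinase-Glo luminescence.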

In experiment [2] the test system is mouse model of beta-thalassemia. The conditions noted are these: cited from earlier work.

T1 sequence (P30613 14-574): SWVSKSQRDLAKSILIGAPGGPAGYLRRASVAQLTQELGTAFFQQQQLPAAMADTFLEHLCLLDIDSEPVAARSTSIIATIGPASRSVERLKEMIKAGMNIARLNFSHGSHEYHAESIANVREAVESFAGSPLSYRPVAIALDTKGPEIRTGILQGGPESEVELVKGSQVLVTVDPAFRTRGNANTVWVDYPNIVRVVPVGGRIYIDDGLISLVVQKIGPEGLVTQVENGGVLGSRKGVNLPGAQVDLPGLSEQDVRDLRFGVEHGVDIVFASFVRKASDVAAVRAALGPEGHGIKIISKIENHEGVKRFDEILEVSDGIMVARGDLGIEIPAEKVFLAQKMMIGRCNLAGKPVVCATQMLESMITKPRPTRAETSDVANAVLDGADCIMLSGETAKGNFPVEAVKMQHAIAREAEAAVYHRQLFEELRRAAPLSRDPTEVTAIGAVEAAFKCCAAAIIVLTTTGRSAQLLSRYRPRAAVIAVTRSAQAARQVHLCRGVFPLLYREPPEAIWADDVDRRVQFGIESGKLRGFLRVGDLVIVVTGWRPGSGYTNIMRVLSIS

In experiment [1], `O=C(NCc1ncnn1-c1ccc2cccnc2c1)NCc1ncnn1-c1ccc2cccnc2c1` [Compound 81, 1,3-bis({[1-(quinolin-7-yl)-1H-1,2,4-triazol-5-yl]methyl})urea] registered an AC50 of 280 nM and an Emax of 64%.
For `O=C(NCc1ncnn1-c1ccc(Cl)c(F)c1)NCc1nc(C2CC2)nn1-c1ccc2cccnc2c1` [Compound 91, 1-{[1-(4-chloro-3-fluorophenyl)-1H-1,2,4-triazol-5-yl]methyl}-3-{[3-cyclopropyl-1-(quinolin-7-yl)-1H-1,2,4-triazol-5-yl]methyl}urea], in that order: 49 nM and 61%.
For `CCc1nc(CNC(=O)NCc2ncnn2-c2ccc3nccnc3c2)n(-c2ccc(Cl)c(F)c2)n1` [Compound 49, 1-{[1-(4-chloro-3-fluorophenyl)-3-ethyl-1H-1,2,4-triazol-5-yl]methyl}-3-{[1-(quinoxalin-6-yl)-1H-1,2,4-triazol-5-yl]methyl}urea], in that order: 150 nM and 79%.
For `Cc1nc(CNC(=O)NCc2ncnn2-c2ccc3ncc(F)cc3c2)n(-c2ccc(Cl)c(F)c2)n1` [Compound 46, 3-{[1-(4-chloro-3-fluorophenyl)-3-methyl-1H-1,2,4-triazol-5-yl]methyl}-1-{[1-(3-fluoroquinolin-6-yl)-1H-1,2,4-triazol-5-yl]methyl}urea], in that order: 38 nM and 74%.
On to `O=C1N(Cc2nnnn2-c2ccc(Cl)cc2)CCCN1Cc1nnnn1-c1ccc(Cl)cc1` [Compound 3, 1,3-bis({[1-(4-chlorophenyl)-1H-1,2,3,4-tetrazol-5-yl]methyl})-1,3-diazinan-2-one], for which, in experiment [1], half-maximal activity (AC50) was put at 6000 nM and the maximal response (Emax) came out at 53%.
The matching figures for `Cc1nc(CNC(=O)NCc2ncnn2CC2CCOCC2)n(-c2ccc(Cl)c(F)c2)n1` [Compound 10, 3-{[1-(4-chloro-3-fluorophenyl)-3-methyl-1H-1,2,4-triazol-5-yl]methyl}-1-({1-[(oxan-4-yl)methyl]-1H-1,2,4-triazol-5-yl}methyl)urea]: 80 nM and 74%.
The matching figures for `CCN(Cc1ncnn1-c1ccc(Cl)c(F)c1)C(=O)NCc1ncnn1-c1ccc(Cl)c(F)c1` [Compound 30, 1,3-bis({[1-(4-chloro-3-fluorophenyl)-1H-1,2,4-triazol-5-yl]methyl})-1-ethylurea]: 18 nM and 48%.
On to `CCc1nc(CNC(=O)NCc2ncnn2-c2ccc3cccnc3c2)n(-c2ccc(Cl)c(F)c2)n1` [Compound 45, 1-{[1-(4-chloro-3-fluorophenyl)-3-ethyl-1H-1,2,4-triazol-5-yl]methyl}-3-{[1-(quinolin-7-yl)-1H-1,2,4-triazol-5-yl]methyl}urea], for which, in experiment [1], the activity was half-maximal at 110 nM (AC50) and the Emax worked out at 80%.
For `O=C(c1ccc(NS(=O)(=O)c2cccc3cccnc23)cc1)N1CCN(CC2CC2)CC1` [AG-348, Mitapivat], the “PK activity, ATP levels and RBC parameters” value in experiment [2] is “increased PK activity and ATP levels, as well as improved RBC parameters”.
In experiment [1], `COc1ccc(-n2ncnc2CNC(=O)NCc2nc(C)nn2-c2ccc(Cl)c(F)c2)cn1` [Compound 123, 3-{[1-(4-chloro-3-fluorophenyl)-3-methyl-1H-1,2,4-triazol-5-yl]methyl}-1-{[1-(6-methoxypyridin-3-yl)-1H-1,2,4-triazol-5-yl]methyl}urea] came in with an AC50 of 140 nM and a maximal effect (Emax) of 70%.
In experiment [1], `O=C1N(Cc2nnnn2-c2ccc(Cl)c(F)c2)CCCN1Cc1nnnn1-c1ccc(Cl)c(F)c1` [Compound 4, 1,3-bis({[1-(4-chloro-3-fluorophenyl)-1H-1,2,3,4-tetrazol-5-yl]methyl})-1,3-diazinan-2-one] yielded an AC50 of 1200 nM and an Emax of 80%.
In experiment [1], `Cc1nc(CNC(=O)NCc2nc(C)nn2-c2cnc3ccccc3c2)n(-c2ccc(Cl)c(F)c2)n1` [Compound 138, 1-{[1-(4-chloro-3-fluorophenyl)-3-methyl-1H-1,2,4-triazol-5-yl]methyl}-3-{[3-methyl-1-(quinolin-3-yl)-1H-1,2,4-triazol-5-yl]methyl}urea] came in with an AC50 of 44 nM and a maximal response (Emax) of 129%.
For `Cc1nc(CNC(=O)NCc2ncnn2-c2cc3ccccc3cn2)n(-c2ccc(Cl)c(F)c2)n1` [Compound 125, 1-{[1-(4-chloro-3-fluorophenyl)-3-methyl-1H-1,2,4-triazol-5-yl]methyl}-3-{[1-(isoquinolin-3-yl)-1H-1,2,4-triazol-5-yl]methyl}urea], in that order: 3800 nM and 81%.
With `Cc1nc(CNC(=O)NCc2ncnn2-c2cccnc2)n(-c2ccc(Cl)c(F)c2)n1` [Compound 129, 1-{[1-(4-chloro-3-fluorophenyl)-3-methyl-1H-1,2,4-triazol-5-yl]methyl}-3-{[1-(pyridin-3-yl)-1H-1,2,4-triazol-5-yl]methyl}urea], in experiment [1], half-maximal activity (AC50) was put at 430 nM and the Emax came out at 72%.
The matching figures for `Cc1nc(CNC(=O)NCc2nc(C)nn2-c2ccc3cccnc3c2)n(-c2ccc3cccnc3c2)n1` [Compound 84, 1,3-bis({[3-methyl-1-(quinolin-7-yl)-1H-1,2,4-triazol-5-yl]methyl})urea]: 520 nM and 94%.
On to `Cc1nc(CNC(=O)NCc2ncnn2-c2ccc(Cl)c(F)c2)n(-c2cnc3ccccc3c2)n1` [Compound 144, 1-{[1-(4-chloro-3-fluorophenyl)-1H-1,2,4-triazol-5-yl]methyl}-3-{[3-methyl-1-(quinolin-3-yl)-1H-1,2,4-triazol-5-yl]methyl}urea], for which, in experiment [1], half-maximal activity (AC50) was put at 27 nM and the Emax was found to be 94%.
In experiment [1], `Cc1nc(CNC(=O)NCc2ncnn2-c2cnc3ccc(F)cc3c2)n(-c2ccc(Cl)c(F)c2)n1` [Compound 139, 1-{[1-(4-chloro-3-fluorophenyl)-3-methyl-1H-1,2,4-triazol-5-yl]methyl}-3-{[1-(6-fluoroquinolin-3-yl)-1H-1,2,4-triazol-5-yl]methyl}urea] had an AC50 of 61 nM and an Emax of 96%.
For `CN(Cc1ncnn1-c1ccc(Cl)c(F)c1)C(=O)N(C)Cc1ncnn1-c1ccc(Cl)c(F)c1` [Compound 28, 1,3-bis({[1-(4-chloro-3-fluorophenyl)-1H-1,2,4-triazol-5-yl]methyl})-1,3-dimethylurea], in that order: 1200 nM and 29%.
In experiment [1], `COc1cncc(-n2ncnc2CNC(=O)NCc2nc(C)nn2-c2ccc(Cl)c(F)c2)c1` [Compound 134, 1-{[1-(4-chloro-3-fluorophenyl)-3-methyl-1H-1,2,4-triazol-5-yl]methyl}-3-{[1-(5-methoxypyridin-3-yl)-1H-1,2,4-triazol-5-yl]methyl}urea] gave an AC50 of 170 nM and an Emax of 110%.
In experiment [1], `Cc1nc(CNC(=O)NCc2ncnn2-c2cc(F)c3cccnc3c2)n(-c2ccc(Cl)c(F)c2)n1` [Compound 47, 1-{[1-(4-chloro-3-fluorophenyl)-3-methyl-1H-1,2,4-triazol-5-yl]methyl}-3-{[1-(5-fluoroquinolin-7-yl)-1H-1,2,4-triazol-5-yl]methyl}urea] came in with an AC50 of 42 nM and an Emax of 85%.
In experiment [1], `Cc1nc(CNC(=O)NCc2ncnn2-c2ccc3c(c2)OCC3)n(-c2ccc(Cl)c(F)c2)n1` [Compound 24, 3-{[1-(4-chloro-3-fluorophenyl)-3-methyl-1H-1,2,4-triazol-5-yl]methyl}-1-{[1-(2,3-dihydro-1-benzofuran-6-yl)-1H-1,2,4-triazol-5-yl]methyl}urea] gave an AC50 of 24 nM and a maximal effect (Emax) of 75%.
The matching figures for `Cc1nc(CNC(=O)NCc2ncnn2-c2cc(F)c3ncccc3c2)n(-c2ccc(Cl)c(F)c2)n1` [Compound 102]: 35 nM and 71%.
For `Cc1ccc(-n2ncnc2CN(C)C(=O)NCc2nc(C)nn2-c2ccc(Cl)c(F)c2)cn1` [Compound 79, 3-{[1-(4-chloro-3-fluorophenyl)-3-methyl-1H-1,2,4-triazol-5-yl]methyl}-1-methyl-1-{[1-(6-methylpyridin-3-yl)-1H-1,2,4-triazol-5-yl]methyl}urea], in that order: 160 nM and 53%.
The matching figures for `Cc1nc(CNC(=O)NCc2ncnn2-c2cc(C)c3cccnc3c2)n(-c2ccc(Cl)c(F)c2)n1` [Compound 113, 1-{[1-(4-chloro-3-fluorophenyl)-3-methyl-1H-1,2,4-triazol-5-yl]methyl}-3-{[1-(5-methylquinolin-7-yl)-1H-1,2,4-triazol-5-yl]methyl}urea]: 40 nM and 116%.
As for `O=C(NCc1ncnn1-c1ccc(Cl)cc1)NCc1ncnn1-c1ccc(Cl)cc1` [Compound 61, 1,3-bis({[1-(4-chlorophenyl)-1H-1,2,4-triazol-5-yl]methyl})urea], in experiment [1], the AC50 is 11 nM and the Emax came to 36%.
The matching figures for `O=C(NCc1ncnn1-c1ccc2cccnc2c1)NCc1nc(CF)nn1-c1ccc(Cl)c(F)c1` [Compound 104, 1-{[1-(4-chloro-3-fluorophenyl)-3-(fluoromethyl)-1H-1,2,4-triazol-5-yl]methyl}-3-{[1-(quinolin-7-yl)-1H-1,2,4-triazol-5-yl]methyl}urea]: 36 nM and 80%.
